Test results from PubChem BioAssay (NCI).
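Each compound was tested at five concentrations against cells in 96-well plates for 48 hours. TGI: total growth inhibition.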

Key:
Assay in all cases: NCI tumour cell line growth inhibition, 48 h
T-47D breast = tested on: T-47D breast
M14 melanoma = tested on: M14 melanoma
PC-3 prostate = tested on: PC-3 prostate
A498 renal = tested on: A498 renal
DU-145 prostate = tested on: DU-145 prostate
OVCAR-8 ovarian = tested on: OVCAR-8 ovarian
NCI-H522 lung = tested on: NCI-H522 lung
MOLT-4 leukemia = tested on: MOLT-4 leukemia
SK-MEL-5 melanoma = tested on: SK-MEL-5 melanoma
SNB-75 CNS = tested on: SNB-75 CNS
COLO 205 colon = tested on: COLO 205 colon
ACHN renal = tested on: ACHN renal
RXF 393 renal = tested on: RXF 393 renal
HCC-2998 colon = tested on: HCC-2998 colon
HL-60(TB) leukemia = tested on: HL-60(TB) leukemia
SK-MEL-2 melanoma = tested on: SK-MEL-2 melanoma
BT-549 breast = tested on: BT-549 breast
K-562 leukemia = tested on: K-562 leukemia
OVCAR-3 ovarian = tested on: OVCAR-3 ovarian
HCT-116 colon = tested on: HCT-116 colon
CAKI-1 renal = tested on: CAKI-1 renal
NCI-H23 lung = tested on: NCI-H23 lung
LOX IMVI melanoma = tested on: LOX IMVI melanoma
NCI-H460 lung = tested on: NCI-H460 lung
SF-539 CNS = tested on: SF-539 CNS
NCI-H226 lung = tested on: NCI-H226 lung
UACC-257 melanoma = tested on: UACC-257 melanoma
OVCAR-4 ovarian = tested on: OVCAR-4 ovarian
MDA-N = tested on: MDA-N
HOP-62 NSCLC = tested on: HOP-62 NSCLC
SF-268 CNS = tested on: SF-268 CNS
OVCAR-5 ovarian = tested on: OVCAR-5 ovarian
HS 578T breast = tested on: HS 578T breast
HCT-15 colon = tested on: HCT-15 colon
HT29 colon = tested on: HT29 colon
SF-295 CNS = tested on: SF-295 CNS
EKVX NSCLC = tested on: EKVX NSCLC
TK-10 renal = tested on: TK-10 renal
786-0 renal = tested on: 786-0 renal
SK-MEL-28 melanoma = tested on: SK-MEL-28 melanoma
MCF7 breast = tested on: MCF7 breast
SK-OV-3 ovarian = tested on: SK-OV-3 ovarian
NCI/ADR-RES ovarian = tested on: NCI/ADR-RES ovarian
A549 NSCLC = tested on: A549 NSCLC
CCRF-CEM leukemia = tested on: CCRF-CEM leukemia
IGROV1 ovarian = tested on: IGROV1 ovarian
U251 CNS = tested on: U251 CNS
MDA-MB-435 = tested on: MDA-MB-435
SN12C renal = tested on: SN12C renal
UO-31 renal = tested on: UO-31 renal
MALME-3M melanoma = tested on: MALME-3M melanoma
SR leukemia = tested on: SR leukemia
SW-620 colon = tested on: SW-620 colon
HOP-92 NSCLC = tested on: HOP-92 NSCLC
SNB-19 CNS = tested on: SNB-19 CNS
KM12 colon = tested on: KM12 colon
UACC-62 melanoma = tested on: UACC-62 melanoma
RPMI-8226 leukemia = tested on: RPMI-8226 leukemia
MDA-MB-231 breast = tested on: MDA-MB-231 breast

COC(=O)C1SC(N(C)c2ccccc2)=NC12c1ccccc1Nc1ccccc12 (stereo not drawn)
TGI (T-47D breast): 50 µM
TGI (M14 melanoma): 38.7 µM
TGI (PC-3 prostate): 53.9 µM
TGI (A498 renal): 55.6 µM
TGI (DU-145 prostate): > 100 µM
TGI (OVCAR-8 ovarian): 67.6 µM
TGI (NCI-H522 lung): 38.5 µM
TGI (MOLT-4 leukemia): 28.4 µM
TGI (SK-MEL-5 melanoma): 26 µM
TGI (SNB-75 CNS): 84.7 µM
TGI (COLO 205 colon): 30.7 µM
TGI (ACHN renal): > 100 µM
TGI (RXF 393 renal): > 100 µM
TGI (HCC-2998 colon): 42.4 µM
TGI (HL-60(TB) leukemia): 37.5 µM
TGI (SK-MEL-2 melanoma): 31.7 µM
TGI (BT-549 breast): 45.1 µM
TGI (K-562 leukemia): 47.7 µM
TGI (OVCAR-3 ovarian): 34.1 µM
TGI (HCT-116 colon): 53.5 µM
TGI (CAKI-1 renal): 74.6 µM
TGI (NCI-H23 lung): 35.9 µM
TGI (LOX IMVI melanoma): 50.8 µM
TGI (NCI-H460 lung): 27 µM
TGI (SF-539 CNS): 38.6 µM
TGI (NCI-H226 lung): 51.5 µM
TGI (UACC-257 melanoma): 64 µM
TGI (OVCAR-4 ovarian): 73.9 µM
TGI (MDA-N): 57 µM
TGI (HOP-62 NSCLC): > 100 µM
TGI (SF-268 CNS): 72.5 µM
TGI (OVCAR-5 ovarian): 55.2 µM
TGI (HS 578T breast): 53 µM
TGI (HCT-15 colon): 49.3 µM
TGI (HT29 colon): 62.2 µM
TGI (SF-295 CNS): 50.7 µM
TGI (EKVX NSCLC): 66.3 µM
TGI (TK-10 renal): 72.5 µM
TGI (786-0 renal): 94 µM
TGI (SK-MEL-28 melanoma): 45.8 µM
TGI (MCF7 breast): 81.9 µM
TGI (SK-OV-3 ovarian): > 100 µM
TGI (NCI/ADR-RES ovarian): 65.4 µM
TGI (A549 NSCLC): 87.8 µM
TGI (CCRF-CEM leukemia): 57.7 µM
TGI (IGROV1 ovarian): 53.1 µM
TGI (U251 CNS): 98.8 µM
TGI (MDA-MB-435): 40 µM
TGI (SN12C renal): 66.7 µM
TGI (UO-31 renal): 52.3 µM
TGI (MALME-3M melanoma): 30.9 µM
TGI (SR leukemia): 43.3 µM
TGI (SW-620 colon): > 100 µM
TGI (HOP-92 NSCLC): 59.4 µM
TGI (SNB-19 CNS): 66.1 µM
TGI (KM12 colon): 66.7 µM
TGI (UACC-62 melanoma): 32 µM
TGI (RPMI-8226 leukemia): 12 µM

CC(=O)c1ccc(NC(=O)/C(CC(=O)/C=C/c2ccccc2)=N/NC(N)=S)cc1
TGI (T-47D breast): > 100 µM
TGI (M14 melanoma): > 100 µM
TGI (PC-3 prostate): > 100 µM
TGI (A498 renal): > 100 µM
TGI (OVCAR-8 ovarian): > 100 µM
TGI (NCI-H522 lung): > 100 µM
TGI (MOLT-4 leukemia): > 100 µM
TGI (SK-MEL-5 melanoma): > 100 µM
TGI (SNB-75 CNS): > 100 µM
TGI (ACHN renal): > 100 µM
TGI (RXF 393 renal): > 100 µM
TGI (HCC-2998 colon): > 100 µM
TGI (HL-60(TB) leukemia): > 100 µM
TGI (SK-MEL-2 melanoma): > 100 µM
TGI (BT-549 breast): > 100 µM
TGI (K-562 leukemia): > 100 µM
TGI (OVCAR-3 ovarian): > 100 µM
TGI (HCT-116 colon): > 100 µM
TGI (CAKI-1 renal): > 100 µM
TGI (NCI-H23 lung): > 100 µM
TGI (LOX IMVI melanoma): > 100 µM
TGI (NCI-H460 lung): > 100 µM
TGI (SF-539 CNS): > 100 µM
TGI (NCI-H226 lung): > 100 µM
TGI (UACC-257 melanoma): > 100 µM
TGI (OVCAR-4 ovarian): > 100 µM
TGI (MDA-N): > 100 µM
TGI (HOP-62 NSCLC): > 100 µM
TGI (SF-268 CNS): > 100 µM
TGI (OVCAR-5 ovarian): > 100 µM
TGI (HS 578T breast): > 100 µM
TGI (HCT-15 colon): > 100 µM
TGI (HT29 colon): > 100 µM
TGI (SF-295 CNS): > 100 µM
TGI (EKVX NSCLC): > 100 µM
TGI (TK-10 renal): > 100 µM
TGI (786-0 renal): > 100 µM
TGI (SK-MEL-28 melanoma): > 100 µM
TGI (MCF7 breast): > 100 µM
TGI (SK-OV-3 ovarian): > 100 µM
TGI (NCI/ADR-RES ovarian): > 100 µM
TGI (A549 NSCLC): > 100 µM
TGI (IGROV1 ovarian): > 100 µM
TGI (U251 CNS): > 100 µM
TGI (MDA-MB-435): > 100 µM
TGI (MDA-MB-231 breast): > 100 µM
TGI (SN12C renal): > 100 µM
TGI (UO-31 renal): > 100 µM
TGI (MALME-3M melanoma): > 100 µM
TGI (SR leukemia): > 100 µM
TGI (SW-620 colon): > 100 µM
TGI (HOP-92 NSCLC): > 100 µM
TGI (KM12 colon): > 100 µM
TGI (UACC-62 melanoma): > 100 µM
TGI (RPMI-8226 leukemia): > 100 µM
